Patent US9610262B2, “Therapeutic and/or preventive agent comprising 1-indansulfamide derivative for pain” (Eisai R&D Management Co., Ltd., priority 2013, dated 2017)

Assays:
[1] = system: tactile allodynia in rat chronic constriction injury (CCI) model; assay: Rat chronic constriction injury (CCI) model, von Frey filament test; type: in vivo, Male SD rats; settings: for 50% Response threshold: mean±SEM; for response threshold against mechanical stimulation: pre-administration, 10 and 50 mg/kg oral
Excerpt: The rat chronic constriction injury (CCI) model was used to determine the efficacy on the chronic pain. In this model, tactile allodynia, a typical symptom in chronic pain patients, can be evaluated by using a response threshold against mechanical stimulation by von Frey filaments as an index (Bennett G. J. and Xie, Y. K., (Pain 1988; 33: p 87-107).
Male SD rats (Charles River Japan) aged 6 weeks (n=4, each treatment performed twice in total) were used for this experiment. The rat chronic constriction injury (CCI) model was prepared in accordance with the method of Bennett and Xie above.
The common sciatic nerve was exposed at the level of the middle of the thigh by blunt dissection through biceps femoris under isoflurane anesthesia. Four ligatures (4-0 silk) were tied loosely around the sciatic nerve at about 1 mm spacing. The biceps femoris and the skin were sutured.
On 14 days after surgery, efficacy of the compounds on tactile allodynia was evaluated. The animals were housed in wire mesh bottom cages for 30 minutes prior to the start of the experiment for acclimation. The test compound was suspended in an aqueous solution containing 0.45% methyl cellulose/4.5% Cremophor/10% dimethyl sulfoxide to prepare a suspension having a dosing volume of 10 ml/kg and the suspension was administered orally. The above mixed solvent (vehicle) alone not containing the test compound was used as a negative control. The response threshold against mechanical stimulation was measured by the application of von Frey filaments at bending forces (0.4, 0.6, 1, 2, 4, 6, 8, and 15 g) to the plantar surface of the hind paw in accordance with Chaplan et al. (J Neuroscience Methods 1994; 53(1): p. 55-63). The von Frey filaments were pushed to the paw for 6 seconds to evaluate escape response. The 50% response threshold was determined in accordance with the up-down method of Dixon (Annual Review of Pharmacology and Toxicology 1980; 20: p. 441-462). The measurement was performed before administration and at 30, 90 and 180 minutes after administration. All data are expressed as the mean±SEM. All statistical analyses were performed using Two way Repeated Measures ANOVA followed by Dunnett's test. The p-values less than 0.05 were judged as statistically significant in this experiment.

[2] = system: acute pain (mice hot plate, 53° C.); assay: Mice hot-plate test; type: in vivo, Male C57BL/6NCrlCrlj mice; settings: oral, 60 minutes before the hot-plate test; FIG. 1
Description: The mice hot-plate test was performed to determine the efficacy on acute pain. In this model, latency to the first pain response is recorded as a measure of pain sensitivity (Malmberg, A. and Yaksh, T., Pain. 1995, 60: 83-90).
Male C57BL/6NCrlCrlj mice (Charles River Japan) aged 6 weeks (n=4 to 10, for each treatment) were used for this experiment. The hot plate (model MK 350, Muromachi Kikai Co. Ltd) was set to 53° C. For oral administration, the test compound was suspended in an aqueous solution containing 0.45% methyl cellulose/4.5% Cremophor/10% dimethyl sulfoxide to prepare a suspension having a dosing volume of 10 ml/kg and the suspension was administered orally 60 minutes before the hot-plate test Morphine was used as a positive control and the mixed solvent (vehicle) alone not containing the test compound was used as a negative control.
Each mouse was placed on the hot plate and a stopwatch was immediately started for measurement. The latency time to the first pain response (paw lick or escape jump) was measured. The cut-off time was set to 30 seconds in order to avoid overdamage of the tissues, and the mouse was immediately removed from the hot-plate after measurement. All data are expressed as the mean±SEM. All statistical analyses were performed using Holm-Sidak's multiple comparisons test. The p-values less than 0.05 were judged as statistically significant in this experiment.

[3] = system: acute persistent pain (formalin-injected paw); assay: Formalin test (second phase); type: in vivo, Male CD1 (ICR) mice; settings: oral pre-administration; 15 to 45 minutes after injection of 2.5% formalin; FIG. 2
Description: The compounds were examined in the second phase of the formalin test to determine an analgesic effect on acute persistent pain. In this model, the duration of responses induced by pain (behavior such as licking or biting of the formalin-injected paw) is used as an evaluation index (Dubuisson and Dennis (Pain, 4: p. 161-174 (1977)). Male CD1 (ICR) mice (Charles River Japan) aged 5 to 6 weeks (n=6 to 16, for each treatment) were used for the experiment. The responses induced by pain were measured by an automated behavioral analysis apparatus (MicroAct (Neuroscience, Inc.)) according to detection of changes in magnetic field. Before the day prior to evaluation of pain response, a small magnet for the detection of changes in magnetic field was implanted in the left hindlimb instep under isoflurane anesthesia. For oral administration, the test compound was suspended in a solution containing 0.45% methyl cellulose/4.5% Ceremophor/10% dimethyl sulfoxide to prepare a suspension having a dosing volume of 10 ml/kg and the suspension was administered orally. The mixed solvent as above (vehicle) alone not containing the test compound was used as a negative control. Gabapentin was intraperitoneally administered as a positive control. A 2.5% formalin solution was prepared by diluting Formaldehyde Solution (Wako Pure Chemical Industries) with physiological saline (Otsuka Pharmaceutical). At 40 minutes to an hour after administration of the test compound or the positive control, 10 μl of the 2.5% formalin solution was subcutaneously injected in the left hindlimb pad. The mouse was placed in an observation chamber immediately after administration for measurement. For evaluation of an analgesic effect in the second phase, the duration of behaviors such as licking or biting of the paw was measured by the automated behavioral analysis apparatus from 15 to 45 minutes after injection of the 2.5% formalin solution. All data are expressed as the mean±SEM. All statistical analyses were performed using the Holm-Sidak's multiple comparisons test. The p-values less than 0.05 were judged as statistically significant in this experiment.

[4] = 10 mg/kg oral, 30 min after administration
[5] = 10 mg/kg oral, 90 min after administration
[6] = 10 mg/kg oral, 180 min after administration
[7] = 10 mg/kg oral, Pre (before administration), 14 days after surgery
[8] = 50 mg/kg oral, 30 min after administration
[9] = 50 mg/kg oral, 90 min after administration
[10] = 50 mg/kg oral, 180 min after administration
[11] = 50 mg/kg oral, Pre (before administration), 14 days after surgery

| Compound | 50% Response threshold [1, 4] | 50% Response threshold [1, 5] | 50% Response threshold [1, 6] | 50% Response threshold [1, 7] | analgesic effect on tactile allodynia in CCI model ([1]; 50 mg/kg oral) | 50% Response threshold [1, 8] | 50% Response threshold [1, 9] | 50% Response threshold [1, 10] | 50% Response threshold [1, 11] | response threshold against mechanical stimulation [1] | latency time to the first pain response [2] | duration of the pain response [3] |
| --- | --- | --- | --- | --- | --- | --- | --- | --- | --- | --- | --- | --- |
| NS(=O)(=O)NC1c2c(Cl)cc(F)cc2CC1(F)F (single isomer, unassigned; (-)) [Compound 2, (−)-N-(7-chloro-2,2,5-trifluoro-2,3-dihydro-1H-inden-1-yl)sulfamide] | 3.2 ± 0.4 g | 4.1 ± 0.5 g | 3.1 ± 0.2 g | 2.4 ± 0.2 g | statistically significant analgesic effect | 4.2 ± 0.6 g | 7.6 ± 1.1 g | 4.0 ± 0.5 g | 2.3 ± 0.2 g | increased in an approximately dose dependent manner | significantly increased | statistically significantly shortened |
| NS(=O)(=O)N[C@H]1c2c(F)cc(F)cc2CC1(F)F [Compound 1, N-[(1S)-2,2,5,7-tetrafluoro-2,3-dihydro-1H-inden-1-yl]sulfamide] | 3.2 ± 0.3 g | 4.4 ± 0.5 g | 3.1 ± 0.3 g | 2.4 ± 0.2 g | statistically significant analgesic effect | 6.0 ± 0.7 g | 11.4 ± 1.4 g | 5.3 ± 0.6 g | 2.3 ± 0.2 g | increased in an approximately dose dependent manner | significantly increased | statistically significantly shortened |
| Cc1cccc2c1[C@H](NS(N)(=O)=O)C(F)(F)C2 [Compound 3, N-[(1S)-2,2-difluoro-7-methyl-2,3-dihydro-1H-inden-1-yl]sulfamide] | 2.6 ± 0.4 g | 3.5 ± 0.7 g | 3.9 ± 0.4 g | 2.4 ± 0.2 g | – | 3.1 ± 0.4 g | 3.2 ± 0.5 g | 4.0 ± 0.4 g | 2.4 ± 0.2 g | – | significantly increased | statistically significantly shortened |
| Cc1cc(F)cc2c1[C@H](NS(N)(=O)=O)C(F)(F)C2 [Compound 4, N-[(1S)-2,2,5-Trifluoro-7-methyl-2,3-dihydro-1H-inden-1-yl]sulfamide] | 3.6 ± 0.4 g | 5.2 ± 1.5 g | 5.2 ± 1.0 g | 2.4 ± 0.2 g | – | 4.3 ± 0.9 g | 6.9 ± 1.5 g | 5.6 ± 1.6 g | 2.4 ± 0.2 g | – | significantly increased | statistically significantly shortened |
| NS(=O)(=O)NCc1csc2ccccc12 [compound 1, N-(benzo[b]thiophen-3-ylmethyl)sulfamide, reference compound] | 2.7 ± 0.4 g | 3.4 ± 0.2 g | 3.4 ± 0.3 g | 2.5 ± 0.2 g | – | 3.5 ± 0.3 g | 3.9 ± 0.3 g | 2.8 ± 0.2 g | 2.5 ± 0.2 g | – | – | – |
| NS(=O)(=O)NC[C@H]1COc2cc(Cl)ccc2O1 [compound 2, (2S)-(−)-N-(6-chloro-2,3-dihydro-benzo[1,4]dioxin-2-ylmethyl)-sulfamide, reference compound] | 2.9 ± 0.4 g | 3.2 ± 0.4 g | 3.0 ± 0.2 g | 2.6 ± 0.2 g | – | 3.5 ± 0.3 g | 4.5 ± 0.4 g | 3.6 ± 0.6 g | 2.6 ± 0.2 g | – | – | – |
